Source: patent publication US20240208939A1, “TREATMENT OF AUTOIMMUNE AND INFLAMMATORY DISORDERS WITH INHIBITORS OF BET FAMILY BDII BROMODOMAIN” (POSEIDON INNOVATION 1, INC., priority 2022, published 2024)

Key:
[1] = target: T1, BRD4 BD2 (Homo sapiens, UniProt O60885); assay: Target Engagement Intracellular BET BRD Assay (NanoBRET); format: cell-based; settings: read-out: BRD4 BD2 TE IC50
T1 construct: BD2 TE; expressed in transfected cells
Experimental: 3× Complete Substrate plus Inhibitor Solution in Assay Medium (Opti-MEM® I Reduced Serum Medium, no phenol red, and no serum) was prepared just before measuring BRET. This solution consisted of a 1:166 dilution of NanoBRET™ Nano-Glo® Substrate plus a 1:500 dilution of Extracellular NanoLuc® Inhibitor in Assay Medium. For a 96-well plate, 30 μl of NanoBRET™ Nano-Glo® Substrate, 10 μl of Extracellular NanoLuc® Inhibitor and 4,960 μl of Assay Medium were mixed to produce 5 ml of 3× Complete Substrate plus Inhibitor Solution, followed with gently mixing by inversion 5-10 times in a conical tube. (The final concentration of Extracellular NanoLuc® Inhibitor in the 3× solution was 60 μM, for a working concentration of 20 μM. Use 3× Complete Substrate plus Inhibitor Solution within 2 hours. Discard any remaining solution).
50 μl of 3× Complete Substrate plus Inhibitor Solution were added to each well of the 96-well plate, followed by incubation for 2-3 minutes at room temperature. Donor emission wavelength (e.g., 450 nm) and acceptor emission wavelength (e.g., 610 nm) were measured by using the GloMax® Discover System or other NanoBRET™ Assay-compatible luminometer (it is recommended measuring BRET within 10 minutes after adding NanoBRET™ Nano-Glo™ Substrate plus Extracellular NanoLuc® Inhibitor Solution. However, BRET can be measured for up to 2 hours, but there will be some loss of luminescence signal).
To generate raw BRET ratio values, the acceptor emission value (e.g., 610 nm) was divided by the donor emission value (e.g., 450 nm) for each sample [to correct for background, the BRET ratio was substracted in the absence of tracer (average of no-tracer control samples) from the BRET ratio of each sample]. Raw BRET units were converted to milliBRET units (mBU) by multiplying each raw BRET value by 1,000. NanoBRET™ ratio equation, including optional background correction is shown below:
BRET Ratio=[(Acceptorsample÷Donorsample)−(Acceptorno-tracer control÷Donorno-tracer control)]×1,000.

[2] = system: MCP-1; assay: PBMC MCP-1 HTRF Assay; format: cell-based; settings: LPS 200 ng/mL, 24 hours
Experimental: The cryopreserved PBMC cells were thawed in a 37° C. water bath immediately after taking out from liquid nitrogen storage. A sterile pipette was used to transfer the content to sterile […] centrifuge tube containing […] of complete growth medium (Gibico 1640) and centrifuge at 300×g for 10 min. Supernatant was discarded, and cell pellet was resuspended in 10 mL of complete growth media in a sterile 15 mL tube. The cells were rested for 1 h at 37° C. (1×10^6 cells/mL). The cells were spinned down at 300×g for 10 minutes after 1 h. Supernatant was discard, and cell pellet was resuspended in complete growth medium, the cells number and viability were measured by AO/PI staining. In a 384-well white plate, PBMCs at 25 k cells/well (15 μl per well) were seeded with Gibico 1640 medium. The compound stock was serial diluted into […] by 3-fold dilution. 20 nL DMSO, 20 nL test compounds DMSO stock (serial diluted) were transferred in assay plate by using ECHO550, incubate for 30 min at 37° C., 5% CO2. LPS was diluted by Gibico 1640 medium.add 5 μl per well. The final concentration (200 ng/mL) was incubated for 24 hours at 37° C. with 5% CO2.
For MCP-1 HTRF, 2.5 μl/well MCP-1 donor antibody and 2.5 μl/well MCP-1 acceptor antibody were added into 384 well plate, following by centrifuging at 190×g for 1 min and incubating at room temperature for 2 h. The plate was read on the Envision.

[3] = system: IMQ-mouse model of psoriasis; assay: IMQ induced psoriasis mouse model, PASI scoring; format: in vivo, mice; settings: daily dosing po, compared to vehicle treatment
Experimental: Except for the control group, all other groups received a daily topical dose of 60 mg of 5% commercially available IMQ cream on the shaved back for 7 consecutive days. The same amount of Vaseline was applied to the same areas of the animals in the negative control group. Vehicle and DF-6129 were dosed daily (po) for 8 days, from Day −1 to Day 7. Dosing time: 1 hour prior to IMQ application. Psoriasis Area and Severity Index (PASI) Scoring The Psoriasis Area and Severity Index (PASI) scoring system was used to evaluate the severity of skin inflammation of the mouse model. Erythema, scaling, and skin thickness was scored independently from 0-4 as (daily scoring) as below: [table] All statistical analysis were conducted, and the level of significance was set at P<0.05. The group means and standard deviation were calculated for all measurement parameters as study designed. One-way ANOVA comparisons among the groups was performed with software SPSS 16.0.

[4] = system: IL-17; assay: Serum IL-17 ELISA in IMQ-mouse model of psoriasis; format: in vivo, mice; settings: compared to vehicle treatment alone, 4 h post last dosing on day 7
Experimental: Except for the control group, all other groups received a daily topical dose of 60 mg of 5% commercially available IMQ cream on the shaved back for 7 consecutive days. The same amount of Vaseline was applied to the same areas of the animals in the negative control group. Vehicle and DF-6129 were dosed daily (po) for 8 days, from Day −1 to Day 7. Dosing time: 1 hour prior to IMQ application. Animals were euthanized 4 h post last dosing on day 7 (3 h after applying with imiquimod cream). Whole Blood was collected via cardiac puncture from all group animals. Serum samples were separated by centrifugation at 4° C. at 8000 g for 5 minutes, total 70 samples. All serum samples were stored at −80° C. for IL-17 analysis. All statistical analysis were conducted, and the level of significance was set at P<0.05. The group means and standard deviation were calculated for all measurement parameters as study designed. One-way ANOVA comparisons among the groups was performed with software SPSS 16.0.

[5] = system: IL-17A; assay: Back skin PCR analysis in IMQ-treated mice, IL-17A mRNA; format: in vivo; settings: 10 mg/kg, compared with vehicle treatment alone
Experimental: (§1) Except for the control group, all other groups received a daily topical dose of 60 mg of 5% commercially available IMQ cream on the shaved back for 7 consecutive days. The same amount of Vaseline was applied to the same areas of the animals in the negative control group.
(§2) Vehicle and DF-6129 were dosed daily (po) for 8 days, from Day −1 to Day 7. Dosing time: 1 hour prior to IMQ application.
(§3) Animals were euthanized 4 h post last dosing on day 7 (3 h after applying with imiquimod cream) and back skin was be collected. The skin tissues were divided into two parts. One half was flash frozen and stored at −80° C. for PCR analysis (IL-17A, IL-17F, IL-22 and IL-23), the other half was fixed in 10% formalin for HE staining and scoring.
(§4) All statistical analysis were conducted, and the level of significance was set at P<0.05. The group means and standard deviation were calculated for all measurement parameters as study designed. One-way ANOVA comparisons among the groups was performed with software SPSS 16.0.

[6] = system: IL-22; assay: Back skin PCR analysis in IMQ-treated mice, IL-22 mRNA; format: in vivo; settings: 10 mg/kg, compared with vehicle treatment alone
Experimental: as §1, §2, §3, §4

[7] = system: IL-23; assay: Back skin PCR analysis in IMQ-treated mice, IL-23 mRNA; format: in vivo; settings: 10 mg/kg, compared with vehicle treatment alone
Experimental: as §1, §2, §3, §4

[8] = system: IL-17A, IL17F and IL-22; settings: Gilan et al. 2020; cited from earlier work

SMILES	IC50 [1]	IC50 [2]	erythema [3]	scaling [3]	skin thickening [3]	total psoriasis (PASI) score [3]	serum IL-17 levels [4]	mRNA levels of IL-17A from the back skin [5]	mRNA levels of IL-22 from the back skin [6]	mRNA levels of IL-23 from the back skin [7]	expression of disease relevant pro-inflammatory genes, including IL-17A, IL17F and IL-22 [8]
Cn1ccn(-c2ccc(-c3cc(F)cc(-c4cccc(N5CCN(C(C)(C)C)CC5)c4)c3O)cc2Cl)c1=O [Example I-1, 1-(3″-(4-(tert-butyl)piperazin-1-yl)-3-chloro-5′-fluoro-2′-hydroxy-[1,1′:3′,1″- terphenyl]-4-yl)-3-methyl-1,3-dihydro-2H-imidazol-2-one]	323 pM	1510 pM	significant decreases	significant decreases	significant decreases	significantly reduced	significantly reduced	significantly reduced	significantly reduced	significantly reduced	
CNC(=O)c1cc(C(=O)NC2CC2)cn(Cc2ccccc2)c1=O [GSK620]											reduced the expression
